# Molecular target: T1, human FSH receptor (Homo sapiens, UniProt P23945)
# T1 construct: expressed in transfected cells; host or cells: CHO cells (hFSHR clone 16)
# T1 sequence (P23945 18-695): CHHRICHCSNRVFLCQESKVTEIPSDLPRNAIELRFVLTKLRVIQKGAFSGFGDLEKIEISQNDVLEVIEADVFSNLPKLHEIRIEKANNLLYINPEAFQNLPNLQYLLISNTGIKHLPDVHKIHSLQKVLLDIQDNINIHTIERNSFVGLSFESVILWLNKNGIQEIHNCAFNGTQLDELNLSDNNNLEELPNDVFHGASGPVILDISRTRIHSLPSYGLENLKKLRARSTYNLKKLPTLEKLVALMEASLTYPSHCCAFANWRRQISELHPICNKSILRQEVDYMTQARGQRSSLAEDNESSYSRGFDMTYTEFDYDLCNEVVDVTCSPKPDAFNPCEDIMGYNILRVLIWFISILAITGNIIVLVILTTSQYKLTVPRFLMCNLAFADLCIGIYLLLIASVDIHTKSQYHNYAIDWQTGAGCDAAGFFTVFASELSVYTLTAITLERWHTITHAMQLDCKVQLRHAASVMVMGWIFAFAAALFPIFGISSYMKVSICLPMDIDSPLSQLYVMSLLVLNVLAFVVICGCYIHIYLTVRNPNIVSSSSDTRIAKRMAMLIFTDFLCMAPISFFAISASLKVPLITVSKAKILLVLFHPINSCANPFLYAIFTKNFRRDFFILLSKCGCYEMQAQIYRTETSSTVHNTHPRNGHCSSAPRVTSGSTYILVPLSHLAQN
# Assay: HTRF assay for measuring cAMP in cells (FSH antagonism)
# Type: cell-based
# Settings: hFSHR clone 16 cells (CHO cells stably transfected with the human FSH receptor); in the presence of 1e-9 mol/l hFSH; 37° C. for 2 h; read-out: IC50, FSH antagonistic effect in the HTRF assay
# Method: HTRF Assay for Measuring cAMP in Cells
# The method is based on a competitive immunoassay between native cAMP, which has been produced by the cells, and cAMP which is labelled with cAMPD2 conjugate. The tracer binding was visualized by a monoclonal antibody, anti-cAMP labelled with cryptate [HTRF=homogeneous time-resolved fluorescence].
# The specific signal is inversely proportional to the cAMP concentration of the samples employed.
# The 665 nm/620 nm fluorescence ratio was evaluated.
# The following material was used: 96-well plates for the tissue culture, 96-well plates with black edge and black base (e.g. Fluotrac 600 from Greiner), 96-well plates for the substance dilutions of polypropylene and cAMP Femtomolar (4000wells Kit, CIS Bio International # 62AM5PEJ).
# The following reagents were used: BSA (bovine serum albumin) Fraction V protease-free, IBMX (3-isobutyl-1-methylxanthine), hFSH (human follicle stimulating hormone), Triton X-100 analytical grade, potassium fluoride analytical grade, G 418 (Geneticin) and Accutase.
# Buffer 1 (washing and testing buffer) contained PBS, 1 mM CaCl2, 1 mM MgCl2, 0.2% glucose; 0.1% BSA, 1 mM IBMX.
# Buffer 2 (2× lysis buffer) contained 1% Triton X-100 in PBS (without CaCl2 and MgCl2).
# Buffer 3 (assay buffer) contained 50 mM potassium phosphate buffer (pH 7.0); 800 mM potassium fluoride; 0.2% BSA (always added fresh).
# On day 1, the cells were seeded in 96-well plates (3×10^4 cells per well hFSHR clone 16 cells (CHO cells stably transfected with the human FSH receptor in 150 μl of medium). The next day, test substance dilutions were made up. For this purpose, all the substances were diluted in ice-cold buffer 1 (with or without hFSH), and the substance dilutions were placed on ice until applied to the cells.
# The cell supernatant was then aspirated off, and the cells were washed 2× with 200 μl of buffer 1. The cells were treated with 60 μl of the appropriate substance concentrations at 37° C. for 2 h. The cells were then lysed with 60 μl of buffer 2 (put onto the supernatant) (on a plate shaker at RT for 30 min).
# The test conjugates (cAMP-D2 and anti-cAMP cryptate, CIS Bio) were diluted in buffer 3 in accordance with the manufacturers' information. The actual mixture for measurement was pipetted into a black 96-well plate (in each case 15 μl of the cell lysate diluted with 35 μl of buffer 1; firstly 25 μl of cAMP-D2 conjugate were pipetted and, after 10 min, 25 μl of the anti-cAMP cryptate were added). This is followed by incubation at RT for 90 minutes. The measurement was carried out in a PheraStar (BMG).
# Tissue Culture Conditions
# Dose-effect curve (hFSH) for the human receptor: 1e-8, 3e-9, 1e-9, 3e-10, 1e-10, 3e-11, 1e-11, 3e-12 mol/l.
# The test substances were employed in suitable dilutions in the absence (test for agonism) and in the presence of 1e-9 mol/l hFSH.
# The values of the well ratio were averaged and then entered directly in SigmaPlot versus the concentrations. The maximum and minimum values were determined for each plate, and half the difference is to be regarded as IC50.
row,Structure (SMILES),IC50
1,"CNC(=O)c1ccc(C#Cc2ccc(OC(C)C)c(C(=O)NC(CC#N)Cc3c[nH]c4ccccc34)c2)cc1 (stereo not shown) [Example 9, N-[2-Cyano-1-(1H-indol-3-ylmethyl)-ethyl]-2-isopropoxy-5-(4-methylcarbamoyl-phenylethynyl)-benzamide]",750 nM
2,"CC(C)Oc1ccc(C#Cc2ccc(C(N)=O)cc2)cc1C(=O)NC(CC#N)Cc1c[nH]c2ccccc12 (stereo not shown) [Example 8, 5-(4-Carbamoyl-phenylethynyl)-N-[2-cyano-1-(1H-indol-3-ylmethyl)-ethyl]-2-isopropoxy-benzamide]",200 nM
3,"CNC(=O)c1ccccc1C#Cc1ccc(OC(C)C)c(C(=O)NC(CC#N)Cc2c[nH]c3ccccc23)c1 (stereo not shown) [Example 11, N-[2-Cyano-1-(1H-indol-3-ylmethyl)-ethyl]-2-isopropoxy-5-(2-methylcarbamoyl-phenylethynyl)-benzamide]",10000 nM
4,"CC(C)Oc1ccc(-c2ccc(C(=O)N3CCOCC3)c(Cl)c2)cc1C(=O)NC(CC#N)Cc1c[nH]c2ccccc12 (stereo not shown) [Example 6, 3′-Chloro-4-isopropoxy-4′-(morpholine-4-carbonyl)-biphenyl-3-carboxylic acid [2-cyano-1-(1H-indol-3-ylmethyl)-ethyl]-amide]",80 nM
5,"Cc1cc(C(N)=O)ccc1C#Cc1ccc(OC(F)(F)F)c(C(=O)NC(CC#N)Cc2c[nH]c3ccccc23)c1 (stereo not shown) [Example 4, 5-(4-Carbamoyl-2-methylphenylethynyl)-N-[2-cyano-1-(1H-indol-3-ylmethyl)-ethyl]-2-trifluoromethoxy-benzamide]",250 nM
6,"CNC(=O)c1cccc(C#Cc2ccc(OC(C)C)c(C(=O)NC(CC#N)Cc3c[nH]c4ccccc34)c2)c1 (stereo not shown) [Example 10, N-[2-Cyano-1-(1H-indol-3-ylmethyl)-ethyl]-2-isopropoxy-5-(3-methylcarbamoyl-phenylethynyl)-benzamide]",3500 nM
7,"CNC(=O)c1cc(F)cc(-c2ccc(OC(C)C)c(C(=O)NC(CC#N)Cc3c[nH]c4ccccc34)c2)c1 (stereo not shown) [Example 1, 5′-Fluoro-4-isopropoxy-biphenyl-3,3′-dicarboxylic acid 3-{[2-cyano-1-(1H-indol-3-ylmethyl)-ethyl]-amide}3′-methylamide]",3500 nM

# — US20090069321A1, “CYANOMETHYL SUBSTITUTED N-ACYL TRYPTAMINES” (priority 2007, published 2009)
